Measurements: PMC8950151, “Synthesis and Evaluation of the Antifungal and Toxicological Activity of Nitrofuran Derivatives” (Pharmaceutics, 2022)
In brackets after ≈: the same amount, converted by molar mass. Where two headings read alike, the source gives them in different places.

Legend:
[1] = system: Candida albicans (ATCC 90028); assay: Susceptibility test (CLSI M27-A3 broth microdilution, resazurin readout), MIC90; type: cell-based; conditions: ATCC90028, C. albicans, 24 h, 37 °C
C. krusei (ATCC 6258) [2] = assay: as above; type: cell-based, Candida krusei; conditions: Pichia kudriavzevii
C. glabrata (ATCC 90030) [3] = assay: as above; type: cell-based, Candida glabrata; conditions: Nakaseomyces glabratus, ATCC90030, 24 h, 37 °C
[4] = system: Cryptococcus neoformans (H99/ATCC 208821); assay: as above; type: cell-based
[5] = system: Histoplasma capsulatum (G217-B/ATCC 26032); assay: microbe, parasite or virus in culture; type: cell-based; conditions: ATCC26032, 144 h
T. rubrum (ATCC 28289) [6] = assay: Susceptibility assay for dermatophytes (CLSI M38-A2, resazurin), MIC90; type: cell-based; conditions: Trichophyton rubrum, ATCC28289, 96 h, 35 °C
[7] = system: Trichophyton mentagrophytes (ATCC 11481); assay: as above; type: cell-based; conditions: Trichophyton mentagrophytes, ATCC11481, 96 h, T. mentagrophytes, 35 °C, read-out: MIC90
[8] = system: Candida albicans (ATCC 90028); assay: Minimum fungicidal concentration (MFC); type: cell-based; conditions: ATCC90028, C. albicans
C. krusei (ATCC 6258) [9] = assay: Minimum fungicidal concentration (MFC); type: cell-based, Candida krusei; conditions: Pichia kudriavzevii, ATCC6258
C. glabrata (ATCC 90030) [10] = assay: Minimum fungicidal concentration (MFC); type: cell-based, Candida glabrata; conditions: Nakaseomyces glabratus, ATCC90030; C. glabrata; read-out: MFC
[11] = system: Cryptococcus neoformans (H99/ATCC 208821); assay: Minimum fungicidal concentration (MFC); type: cell-based; conditions: ATCC208821, C. neoformans
[12] = system: Histoplasma capsulatum (G217-B/ATCC 26032); assay: microbe, parasite or virus in culture; type: cell-based; conditions: ATCC26032
[13] = system: Paracoccidioides brasiliensis (Pb 18); assay: microbe, parasite or virus in culture; type: cell-based; conditions: Paracoccidioides brasiliensis
T. rubrum (ATCC 28289) [14] = assay: Minimum fungicidal concentration (MFC); type: cell-based, Trichophyton rubrum; conditions: Trichophyton rubrum, ATCC28289
[15] = system: Trichophyton mentagrophytes (ATCC 11481); assay: Minimum fungicidal concentration (MFC); type: cell-based; conditions: Trichophyton mentagrophytes, ATCC11481; T. mentagrophytes
[16] = system: A549 (ATCC CCL-185) lung epithelial cell line; assay: Cytotoxicity assay in monolayer by resazurin colorimetric method; type: cell-based; conditions: Homo sapiens, A549 cells, 72 h
in vitro = conditions: human
in vivo = conditions: AU37 [glp-4 (bn2) I, sek-1 (km4) X], Caenorhabditis elegans, C. elegans larvae viability
Description: The experiments were carried out with the mutant strain (AU37 [glp-4 (bn2) I; […]]). The strain was maintained on plates containing nematode growth medium (NGM) seeded with Escherichia coli OP50 at 16 °C. The stage of synchronization of young adults at stage L4 was performed for the toxicity test. About 20 larvae were transferred to each well of 96-well plates containing 100 μL of a medium composed of 60% of 50 mM NaCl; 40% BHI broth; 10 mg/mL cholesterol in ethanol; 200 mg/mL ampicillin and 90 mg/mL kanamycin. Then, 100 μL of dilutions of nitrofuran derivatives (showing the best selectivity index against the fungal species) were added. […] Plates were incubated at 25 °C for 24 h. Survival was assessed by the mobility and shape of the nematode (stick-shaped larvae were considered dead, while sinusoidal larvae were considered alive) under an inverted optical microscope on 40× objective lenses.

Row | SMILES | MIC90 [1] [µg/mL] | MIC90 (C. krusei (ATCC 6258) [2]; ATCC6258, 24 h) [µg/mL] | MIC90 (C. glabrata (ATCC 90030) [3]) [µg/mL] | MIC90 ([4]; ATCC208821, 48 h) [µg/mL] | MIC90 [5] [µg/mL] | MIC90 (T. rubrum (ATCC 28289) [6]) [µg/mL] | MIC90 [7] [µg/mL] | MFC [8] [µg/mL] | MFC (C. krusei (ATCC 6258) [9]) [µg/mL] | MFC (C. glabrata (ATCC 90030) [10]) [µg/mL] | MFC [11] [µg/mL] | MFC [12] [µg/mL] | MFC [13] [µg/mL] | MFC (T. rubrum (ATCC 28289) [14]) [µg/mL] | MFC [15] [µg/mL] | IC50 [16] [µg/mL] | IC50 (in vitro) [µg/mL] | viability at 24 h, 250 µg/mL (in vivo) [%] | MIC90 (C. krusei (ATCC 6258) [2]; ATCC6258, C. krusei, 24 h, 37 °C, read-out: MIC90) [µg/mL] | MIC90 ([4]; ATCC208821, C. neoformans, 48 h, 37 °C, read-out: MIC90) [µg/mL]
1 | O=C(/C=C/c1ccc([N+](=O)[O-])o1)c1cc(F)c(Cl)cc1Cl [Compound 17, (E)-1-(2,4-dichloro-5-fluorophenyl)-3-(5-nitrofuran-2-yl)prop-2-en-1-one] | > 250 | > 250 | > 250 | ≥ 250 | > 250 | > 250 | > 250 | > 250 | > 250 | > 250 | ≥ 250 | > 250 | 3.9 (≈ 11.8 µM) | > 250 | > 250 | 68.2 (≈ 207 µM) | 1.56 (≈ 4.73 µM) |  |  | 
2 | O=C(/C=C/c1ccc([N+](=O)[O-])o1)c1ccc(Br)cc1 [Compound 11] | 125 (≈ 388 µM) | 250 (≈ 776 µM) | 250 (≈ 776 µM) | ≥ 250 | 0.48 (≈ 1.49 µM) | 7.8 (≈ 24.2 µM) | 7.8 (≈ 24.2 µM) | 250 (≈ 776 µM) | > 250 | > 250 | ≥ 250 | 0.48 (≈ 1.49 µM) | 0.98 (≈ 3.04 µM) | 15.6 (≈ 48.4 µM) | 7.8 (≈ 24.2 µM) | 12.2 (≈ 38 µM) | 62.6 (≈ 194 µM) | 80 |  | 
3 | CSc1ccc(C(=O)/C=C/c2ccc([N+](=O)[O-])o2)cc1 [Compound 13] | > 250 | > 250 | > 250 | ≥ 250 | 125 (≈ 432 µM) | 0.98 (≈ 3.39 µM) | 0.98 (≈ 3.39 µM) | > 250 | > 250 | > 250 | ≥ 250 | 125 (≈ 432 µM) | 0.98 (≈ 3.39 µM) | 1.95 (≈ 6.74 µM) | 0.98 (≈ 3.39 µM) | 17.9 (≈ 61.9 µM) | 4.15 (≈ 14.3 µM) |  |  | 
4 | O=C(/C=C/c1ccc([N+](=O)[O-])o1)c1ccc(F)cc1 [Compound 9] | 15.6 (≈ 59.8 µM) | 250 (≈ 957 µM) | 31.2 (≈ 120 µM) | 7.81 (≈ 29.9 µM) | 3.9 (≈ 14.9 µM) | 0.98 (≈ 3.75 µM) | 1.95 (≈ 7.47 µM) | 31.2 (≈ 120 µM) | > 250 | > 250 | 15.6 (≈ 59.8 µM) | 3.9 (≈ 14.9 µM) | 1.95 (≈ 7.47 µM) | 1.95 (≈ 7.47 µM) | 1.95 (≈ 7.47 µM) | 23.4 (≈ 89.6 µM) | 47.2 (≈ 181 µM) |  |  | 
5 | O=C(/C=C/c1ccc([N+](=O)[O-])o1)c1ccccc1 [Compound 8] | 7.8 (≈ 32.1 µM) | 250 (≈ 1030 µM) | 7.81 (≈ 32.1 µM) | 31.2 (≈ 128 µM) | 15.6 (≈ 64.2 µM) | 0.98 (≈ 4.03 µM) | 0.98 (≈ 4.03 µM) | > 250 | > 250 | > 250 | 31.2 (≈ 128 µM) | 15.6 (≈ 64.2 µM) | 1.95 (≈ 8.02 µM) | 1.95 (≈ 8.02 µM) | 1.95 (≈ 8.02 µM) | 53.8 (≈ 221 µM) | 6.66 (≈ 27.4 µM) |  |  | 
6 | O=C(/C=C/c1ccc([N+](=O)[O-])o1)c1ccc(Cl)cc1 [Compound 10] | 250 (≈ 900 µM) | > 250 | > 250 | 250 (≈ 900 µM) | 7.81 (≈ 28.1 µM) | 3.9 (≈ 14 µM) | 3.9 (≈ 14 µM) | > 250 | > 250 | > 250 | ≥ 250 | 15.6 (≈ 56.3 µM) | 0.98 (≈ 3.53 µM) | 7.81 (≈ 28.1 µM) | 7.81 (≈ 28.1 µM) | 38.7 (≈ 139 µM) | 215 (≈ 776 µM) |  |  | 
7 | C[C@@H]1[C@H](O)[C@@H](C)/C=C/C=C/C=C/C=C/C=C/C=C/C=C/[C@H](O[C@@H]2O[C@H](C)[C@@H](O)[C@H](N)[C@@H]2O)C[C@@H]2O[C@](O)(C[C@@H](O)C[C@@H](O)[C@H](O)CC[C@@H](O)C[C@@H](O)CC(=O)O[C@H]1C)C[C@H](O)[C@H]2C(=O)O [AmB, amphotericin B, reference compound] |  |  |  |  | 0.03 (≈ 0.0325 µM) |  |  |  |  |  |  |  |  |  |  |  |  |  | 1 (≈ 1.08 µM) | 0.06 (≈ 0.0649 µM)
